Results reported in patent US20200138772A1, “STABILIZED FORMULATIONS OF CANNABINOID COMPOSITIONS” (priority 2018, published 2020).
Where two headings read alike, the source gives them in different places.

Assays:
[1] = Randomized, double blind, parallel bioavailability study (plasma CBD, THC and metabolites by LCMS); conditions: human, oral
Method: Dosage was standardized to 10 mg of THC. […] Secondary outcome was a subjective evaluation of drug effects assessed using modified Drug Effects Questionnaire (DEQ-5) for the control product and the experimental product. Relevant experimental descriptions of several study aspects are detailed below.
Administration: A pre-dose plasma (via IV catheter) and a urine sample is collected from the participant before the administration of the emulsions/formulations. […] The bowl in which the product is mixed is rinsed with 100 ml water and the participant consumes the complete amount. After the product mixture is consumed, the participant is provided with an 8 oz glass of water that is then consumed in its entirety within 1-2 minutes.
The samples are also analyzed for HbAlc, CBC, electrolytes (Na, K, Cl, Ca), creatinine, estimated glomerular filtration rate (eGFR), aspartate aminotransferase (AST), alanine aminotransferase (ALT), and bilirubin. Urine samples are also obtained at the following time ranges: 1-4 hrs, 4-8 hrs and 8-12 hrs.
Plasma and urine samples are collected at KGK Science.

[2] = cited from earlier work; for time to achieve peak plasma concentration (tmax): different doses; for half-life / systemic bioavailability: humans

| Structure (SMILES) | Tmax [1] [h] | time to achieve peak plasma concentration (tmax) [2] [h] | half-life ([2]; intravenous injection) [h] | half-life ([2]; oral administration) [h] | half-life ([2]; smoking) [h] | systemic bioavailability ([2]; oral) | maximal plasma concentrations observed as late as ([2]; orally taken, in some cases) [h] | systemic bioavailability ([2]; smoked) |
| --- | --- | --- | --- | --- | --- | --- | --- | --- |
| C=C(C)[C@@H]1CCC(C)=C[C@H]1c1c(O)cc(CCCCC)cc1O [CBD, (−)-Cannabidiol (CBD)] | 0.167 to 1.42 | 1.5 to 4 | 18 to 33 | 48 to 120 | 27 to 35 | – | – | – |
| CCCCCc1cc(O)c2c(c1)OC(C)(C)[C@@H]1CCC(C)=C[C@@H]21 [Δ^9-THC, Δ^9-Tetrahydrocannabinol (Δ^9-THC)] | 0.167 to 1.5 | 1 to 2 | – | – | – | 4-12% | ≤ 6 | 10-27% |
